# Where a name gives a salt, the structure may show the parent alone. Read-outs that look alike come from different tables or passages of the source.
# Key:
# [1] = Oral toxicity (mortality) in the mouse, Table 1; type: in vivo; conditions: mouse, in vivo, po, Swiss mice, 14 days
# Experimental: (§1) The mortality percentages caused by the products of the present invention administered orally to Swiss mice are shown in Table 1. The animals, free of specific pathological organism were housed in an air conditioned room from 24 to 48 hours before the start of the experiments. They were divided up into lots of 5 males and 5 females. With the animals unfed for 24 hours, the substances were administered intragastrically in a base of 6% gum arabic in a volume equal to 0.1 ml for 10 g of animal weight. The mortality was recorded at 14 days.
# (§2) % of mortality as a function of the dose
# phenylbenzoquinone (PBQ) = assay: Analgesic activity using phenylbenzoquinone (PBQ) as noxious agent, Table 2; type: in vivo, male Swiss mouse; conditions: for inhibition in vivo at 50 mg/kg / inhibition in vivo at 100 mg/kg / inhibition in vivo at 200 mg/kg: Mus musculus
# Experimental: The analgesic activity was determined with the male Swiss mouse using phenylbenzoquinone (PBQ) (a variation of the method of Siegmund et al, Proc. Soc. Exp. Med., […], 95, 729-31) as the noxious agent. Twenty-eightminutes after having administered the test products in a suspension in a 6% gum base, the PBQ solution was injected. The mice were then observed ca. 5 mn. for the next five minutes.
# % of analgesic activity as a function of
# the dose expressed in mg/kg
# [2] = system: number of escapes the animal made in 5 minutes; assay: Escape test, Table 3; type: in vivo, mouse; conditions: Mus musculus, po, 5 min, read-out: % of activity (variation of the number of escapes)
# Excerpt: The products of the invention were always administered orally in 6% gum base.
# The notation NS signifies that the difference between the results noted for the product and the results noted for the excipient alone is not significant at the threshold 0.05 according to the Student t Test.
# [3] = system: ptosis induced by reserpine; assay: Antagonism of ptosis induced by reserpine, Table 6; type: in vivo; conditions: po, read-out: % of inhibition of ptosis induced by reserpine
# Excerpt: The psychotropic profile of the present invention products has been characterized with the animals in numerous tests some of whose results are shown hereinafter. The products of the invention were always administered orally in 6% gum base.
# Certain tests made it possible to show antidepressive activities. These are tests of antagonism to the effects of reserpine, oxotremorine (according to Everett G. M. et al, Science, 1956, 124, 79 and Levy J. et al, Therapie 1965, 20, 265) and to despair (according to Porsolt P. D. et al, Eur. J. Pharmacol., 1978, 47, 379-91).
# % of inhibition of ptosis induced by reserpine
# as a function of the dose administered orally
# Swiss mice = assay: Oral toxicity (mortality) in the mouse, Table 1; type: in vivo; conditions: 14 days, 20160 min
# Experimental: as §1, §2
# [4] = read-out: % of analgesic activity, 100 mg/kg, male Swiss mouse, PBQ
# [5] = read-out: % of analgesic activity, 200 mg/kg, male Swiss mouse, PBQ
# [6] = 100 mg/kg, male Swiss mouse, PBQ, read-out: % of analgesic activity
# [7] = 200 mg/kg, male Swiss mouse, PBQ, read-out: % of analgesic activity
Structure (SMILES),mortality at 336 h ([1]; 1500 mg/kg) [%],mortality at 336 h ([1]; 2000 mg/kg) [%],mortality at 336 h ([1]; 500 mg/kg) [%],inhibition in vivo at 100 mg/kg (phenylbenzoquinone (PBQ); [4]) [%],mortality at 336 h ([1]; 1000 mg/kg) [%],mortality at 336 h ([1]; 750 mg/kg) [%],other results
"CN(C)CCc1ccccc1N=CC=Cc1ccccc1 [COR 01 185, N-cinnamylidene 2-(2-N,N,-dimethylaminoethyl)aniline]",0,100,,,,,
CN(C)CCc1cc2c(cc1N=Cc1ccc(Br)s1)OCO2 [COR 01 181],,,30,42,,,"mortality at 336 h ([1]; 250 mg/kg): 0%; inhibition in vivo at 50 mg/kg (phenylbenzoquinone (PBQ); read-out: % of analgesic activity, 50 mg/kg, male Swiss mouse, PBQ): 25%"
CC(C)(C)NCCc1cc2c(cc1N=Cc1cccnc1)OCO2 [COR 01 195],20,30,,24,0,,change in vivo at 3 mg/kg [2]: 54%; change in vivo at 5 mg/kg [2]: 53%; change in vivo at 50 mg/kg [2]: 19%; change in vivo at 100 mg/kg [2]: 28%; inhibition in vivo at 200 mg/kg (phenylbenzoquinone (PBQ); [5]): 31%; change in vivo at 50 mg/kg [3]: -22%; change in vivo at 100 mg/kg [3]: -22%
CN(C)CCc1cc2c(cc1N=Cc1cccs1)OCO2 [COR 01 179],,,,,,,% of mortality (Swiss mice; 250 mg/kg): 10%; % of mortality (Swiss mice; 500 mg/kg): 90%
"CN(C)CCc1cc2c(cc1N=Cc1ccccc1C(=O)O)OCO2 [COR 01 142, N-6-(2-N,N-dimethylaminoethyl)-1,3-benzodioxol-5-yl-2-formimidoylbenzoic acid, internal salt]",,50,,,0,,"inhibition in vivo at 50 mg/kg (phenylbenzoquinone (PBQ); 50 mg/kg, male Swiss mouse, PBQ, read-out: % of analgesic activity): 22%; inhibition in vivo at 100 mg/kg (phenylbenzoquinone (PBQ); [6]): 20%; inhibition in vivo at 200 mg/kg (phenylbenzoquinone (PBQ); [7]): 10%"
"CC(Cc1ccccc1N=Cc1cccnc1)N(C)C (centres unmarked) [COR 01 214, 2-(2-N,N-dimethylamino-2-methylethyl)-N-pyridylidene-3 aniline]",30,70,,21,0,,inhibition in vivo at 200 mg/kg (phenylbenzoquinone (PBQ); [5]): 30%
CN(C)CCc1cc2c(cc1N=Cc1ccc(Cl)cc1)OCO2 [COR 01 208],20,80,0,,20,30,
CN(C)CCc1cc2c(cc1N=Cc1cccs1)OCO2 [COR 01 163],,,,,,,"% of mortality (Swiss mice; 150 mg/kg): 25%; % of mortality (Swiss mice; 250 mg/kg): 70%; % of mortality (Swiss mice; 500 mg/kg): 100%; % of analgesic activity (phenylbenzoquinone (PBQ); 50 mg/kg, male Swiss mouse, PBQ): 17.5%"
"C(=Nc1cc2c(cc1CCN1CCCCC1)OCO2)c1cccs1 [COR 01 175, 6-(2-N-piperidinoethyl) N-(thienylidene-2)-1,3-benzodioxole-5-ylamine]",,,10,,,10,mortality at 336 h ([1]; 250 mg/kg): 0%; inhibition in vivo at 100 mg/kg (phenylbenzoquinone (PBQ); [6]): 13%; inhibition in vivo at 200 mg/kg (phenylbenzoquinone (PBQ); [7]): 71%
CN(C)CCc1cc2c(cc1N=Cc1ccc(Cl)c(Cl)c1)OCO2 [COR 01 207],20,40,,,20,0,

# Source: US4333930A, “Orthoarylideneaminophenethylamines and pharmaceutical compositions” (priority 1980, dated 1982)
